# Laboratory results as given in PubChem BioAssay AID1576 (EPA DSSTox, 2009).
# Active and inactive are the calls of the source.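 The calls were made as follows: active = chemicals shown by follow-up kinetic tests to compete for rat estrogen receptor sites, with a measured inhibition constant; inconclusive = some binding seen but constant unmeasurable owing to poor solubility; inactive = no binding up to top dose, or binding unconfirmed.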
# Biological target: Estrogen receptor (Rattus norvegicus) (UniProt P06211)
# Sequence (P06211 whole entry, looked up): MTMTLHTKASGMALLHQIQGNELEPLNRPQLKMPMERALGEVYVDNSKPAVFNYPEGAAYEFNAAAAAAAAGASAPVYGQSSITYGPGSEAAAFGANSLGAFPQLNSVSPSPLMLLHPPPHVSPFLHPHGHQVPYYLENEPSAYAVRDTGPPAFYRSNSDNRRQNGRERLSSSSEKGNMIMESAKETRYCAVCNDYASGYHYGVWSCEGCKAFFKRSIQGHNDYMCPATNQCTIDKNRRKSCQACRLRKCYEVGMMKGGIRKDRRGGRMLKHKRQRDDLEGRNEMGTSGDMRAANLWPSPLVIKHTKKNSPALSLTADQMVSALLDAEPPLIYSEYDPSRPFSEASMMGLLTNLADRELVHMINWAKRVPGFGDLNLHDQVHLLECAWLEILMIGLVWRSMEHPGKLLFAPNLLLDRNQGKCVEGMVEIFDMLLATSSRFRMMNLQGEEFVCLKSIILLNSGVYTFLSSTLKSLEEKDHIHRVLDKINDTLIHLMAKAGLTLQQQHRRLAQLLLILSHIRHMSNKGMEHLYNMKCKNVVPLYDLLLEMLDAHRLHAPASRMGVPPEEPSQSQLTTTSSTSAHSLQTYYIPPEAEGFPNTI
# Assay: DSSTox (KIERBL) EPA Estrogen Receptor Ki Binding Study (Laws et al.) Database
# Details: Rat uterine cytosol ER, 3H-estradiol competitive binding
# Method: This study was conducted by EPA researchers to evaluate the validity of the rat uterine cytosolic (RUC) estrogen receptor (ER) competitive binding assay for use in the Endocrine Disruption Screening Program (EDSP). The assay measures the ability of radiolabeled 17-beta-estradiol (3H-E2) to bind with RUC ER in the presence of increasing concentrations of a test chemical. The goal is to employ this in vitro assay as a 1st tier screening tool for assessing the potential of structurally diverse environmental chemicals to bind to the ER, as well as to support research efforts to develop computational models to predict ER binding. A distinguishing feature of the present study was the use of secondary experimental analysis of binding curves and determination of Ki values to confirm that measured IC50 values corresponded to true positive results. The study concluded that a number of experimental conditions can confound interpretation of IC50 values obtained from the RUC ER-binding assay data and lead to false positive results. In particular, some chemical treatments likely alter the stability of the assay by changing the buffer pH, denaturing ER, or disrupting the ER binding kinetics. […] The chemicals used in this study were selected as part of a validation test for two Quantitative Structure-Activity Relationship (QSAR) models designed to predict ER binding [Fed. Reg. 67(250), 79618, Dec. 30, 2002]. Several hundred chemicals were initially screened, including approximately 100 chemicals selected from among the High Production Volume (HPV) chemicals included in EPA's Toxic Substances Control Act (TSCA) inventory that were predicted to be positive for ER binding, with the rest selected at random from the TSCA inventory. All chemicals were initially tested in ER competitive binding assays by Battelle Pacific Northwest Laboratories, Richland, Washington [EPA Contract Number 68-W-99-033, Task 6]. Approximately 50 chemicals produced binding curves that: (1) strongly implied competitive inhibition of ER binding, or (2) produced partial curves or irregular (non-sigmoid) binding curves. These chemicals were further evaluated in an ER competitive binding assay with secondary analysis to confirm true competitive inhibition and to determine an experimental Ki [U.S. EPA Contract 3D-5967-NTEX]. The results of RUC ER screening for these 50 structurally diverse chemicals, for which secondary confirmatory analyses were performed, were published in the Main Citation (Laws et al., 2006, Tox. Sci. 94:46-56). The remaining 228 chemicals were designated as non-binders based on initial screening studies.
# The DSSTox KIERBL data files include all published IC50 and Ki experimental results for the 50 chemicals included in the Main Citation (Laws et al., 2006) (denoted Group 1), as well as previously unpublished results for an additional 228 structually diverse TSCA chemicals for which no ER binding was observed (denoted Group 2. IC50 values were determined for 32 compounds in Group 1 as the concentration of a test chemical that inhibits the maximal specific binding of 0.33 nM radiolabeled (3H) 17-beta-estradiol (E2) to rat uterine cytosolic (RUC) estrogen receptor (ER) by 50%. Confirmation of binding status was accomplished by secondary analysis using Lineweaver-Burk plots and slope replots to determine true competitive inhibition and an experimental Ki value. Ki is the inhibition constant for the test chemical, i.e., the concentration of the test chemical that will bind to half the binding sites at equilibrium (displacing half of the probe-bound receptors), in the absence of radioligand or other competitors. Ki reported as Mean +/- Standard Error from n=2 experiments (see StandardError_Ki_n2) and is determined from Lineweaver-Burk plots over the tested dose range (TestedRange_microM). For more information see BindingCurve_Group and BindingCurve_Details. […]
row,Structure (SMILES),outcome
1,CN(C)c1ccc(C(=C2C=CC(=[N+](C)C)C=C2)c2ccc(N(C)C)cc2)cc1,inactive; none
2,Cc1cccc(C(=O)O)c1O,inactive; none
3,O=C(O[C@@H](C(=O)O)[C@@H](OC(=O)c1ccccc1)C(=O)O)c1ccccc1,inactive; none
4,COC(=O)C(C)O (configuration not stated),inactive; none
5,CCCCCCCCCCCCCCBr,inactive; none
6,CCCCCCCCOc1ccc(C(=O)c2ccccc2)c(O)c1,inactive; none
7,O=C=NCCCCCCN=C=O,inactive; none
8,CC(C)CC(=O)O,inactive; none
9,CCOC(=O)CCC(=O)OCC,inactive; none
10,C=C(C)C(=O)OCCOCC,inactive; none
11,O=C(n1ccnc1)n1ccnc1,inactive; none
12,CCCCN(CCCC)C(=S)[S-].CCCCN(CCCC)C(=S)[S-].[Ni+2],inactive; none
13,COc1cc([N+](=O)[O-])ccc1N,inactive; none
14,Cc1cc[cH-]c1.[C-]#[O+].[C-]#[O+].[C-]#[O+].[Mn],inactive; none
15,CC(C)(c1cc(Br)c(OCCO)c(Br)c1)c1cc(Br)c(OCCO)c(Br)c1,inactive; none
16,CC(C)(C)CC(C)(C)c1ccc(O)c(-n2nc3ccccc3n2)c1,inactive; none
17,O=C1CCC(=O)O1,inactive; none
